Test results from US12655189B2, “DOTA binding chimeric antigen receptor for cellular therapy” (THE TRUSTEES OF THE UNIVERSITY OF PENNSYLVANIA, priority 2019, dated 2026).

Key:
[1] = test system: hC8.2.5 DOTA CAR T cells; experiment: IFNγ secretion (ELISA) in response to immobilized DOTA or Y-DOTA; assay type: cell-based, human; conditions: immobilized ligand
Procedure: FIGS. 3A-3H illustrate Anti-DOTA Universal Immune Receptor binding and redirected killing. […] DOTA-NHS or Y-DOTA-Sarcosine-Biotin were incubated at various concentrations in a 96-well plate and allowed to passively adhere overnight at 4° C. Plates were washed 2× with PBS and 50,000 immune receptor expressing T cells were added to each well. Plates were incubated at 37° C. and 5% CO2 for 16 hours. Supernatants were harvested and analyzed for IFNγ secretion using a standard IFNγ ELISA kit. […] The average number of DOTA's per antibody was determined using the difference in mass between labeled and unlabeled antibody; in this example there are ˜9.3 DOTAs per antibody.

[2] = test system: antigen positive cells; experiment: Target-cell lysis with DOTA-conjugated targeting ligands: linker/metal tuning and blocking (FIGS. 3E, 6B, 9); assay type: cell-based; conditions: 6 nM DOTA-NHS blocking
Procedure: To investigate the ability of DOTA-linked antibodies to trigger effector function in CAR T cells, CAR T cells were incubated with varying amounts of the Her2-specific Herceptin-conjugated DOTA antibody for 16 hours (FIG. 3D). Following this incubation, the supernatant was collected and IFNγ production was measured.
Herceptin antibodies were conjugated to DOTA, various metal ions were chelated, and the ability of DOTA CAR T cells to kill their targets was evaluated.

[3] = test system: CD20+ cells; experiment: Lysis of CD20+ cells by DOTA CAR; assay type: cell-based; conditions: SKOV3 cells as antigen negative control
[4] = test system: Ramos (CD20+/EGFR−) cells; experiment: Luciferase lysis assay, Ramos; assay type: cell-based; conditions: 16 hours, 2.5:1 E:T, average of 1 DOTA per antibody
Procedure: Cetuximab and Rituximab were conjugated to Bn-DOTA to create targeting ligands with an average of 1 DOTA molecule per antibody, confirmed by MALDI TOF. MDA468 (CD20-/EGFR+) cells and Ramos (CD20+/EGFR−) cells expressing fLuc were incubated for 16 hours with DOTA CAR T cells at a 2.5:1 E:T ratio and targeting ligands at a range of concentrations. Each condition was run in triplicate. Luminescence was measured after co-culture and used to calculate lysis.

[5] = test system: SKOV3 cells transduced with the DOTA CAR; experiment: Cell uptake of radiolabeled probes, DOTA CAR transduced cells; assay type: cell-based
Procedure: FIG. 19 is a histogram illustrating [[…]]DOTA-Bn-NH2 and [^90Y]AABD uptake in SKOV3 cells transduced with the DOTA CAR.
FIG. 20 is a graph illustrating [[…]]Rituximab-Bn-DOTA-Y uptake in SKOV3 cells transduced with the DOTA CAR. The cells bind to [^125I]Rituximab-Bn-DOTA-Y rapidly, with maximum uptake at 60 min.
(§1) [^90Y]DOTA-Bn-NH2 and [^90Y]AABD (FIG. 14) were synthesized by incubating 0.6 mCi of Y-90 with DOTA-Bn-NH2 or AABD at 80° C. for 30 min. The radiochemical purity of [^90Y]DOTA-Bn-NH2 and [^90Y]AABD was >95% as analyzed by ITLC (instant thin-layer chromatography). Cell uptake studies were performed with SKOV3 cells transduced with the DOTA CAR, with untransduced SKOV3 cells as a control; excess Y-DOTA-Bn-NH2 (250 nM) was used as a blocking agent.
(§2) Rituxumab-Bn-DOTA-Y was radiolabeled with 1-125 using Pierce Pre-Coated Iodination Tubes. The radiochemical purity of [^125I]Rituximab-Bn-DOTA-Y was >99% based on ITLC (instant thin-layer chromatography). Cell uptake studies with [^125I]Rituximab-Bn-DOTA-Y were performed with SKOV3 cells that were transduced with the DOTA CAR, with untransduced SKOV3 cells as a control. […] This experiment confirmed that Y-DOTA labeled antibodies are capable of binding to cells that express the DOTA CAR, with minimal nonspecific binding.

[6] = test system: untransduced SKOV3 cells; experiment: Cell uptake of radiolabeled probes, untransduced control cells; assay type: cell-based
Procedure: as §1, §2

## O=C(O)CN1CCN(CC(=O)O)CCN(CC(=O)ON2C(=O)CCC2=O)CCN(CC(=O)O)CC1 [DOTA-NHS]
[1]
  concentration at which the IFNγ effect was saturating: 100 µM
[1]; 16 hours
  IFNγ production by hC8.2.5 DOTA CAR T cells: low levels of IFNγ
[2]
  effect of free monomeric DOTA on lytic function of Herceptin-NHS-DOTA-Y-CAR T cells: blockade of lytic function

## Rituximab-Bn-DOTA-Y: Rituximab-Bn-DOTA with chelated yttrium
[3]
  lysis of CD20+ cells: capable of lysing CD20+ cells

## Rituximab-Bn-DOTA: Rituximab conjugated to Bn-DOTA
[3]
  lysis of CD20+ cells: specifically lysed
[4]
  lysis of Ramos cells: able to specifically lyse their respective target cell lines

## [^125I]Rituximab-Bn-DOTA-Y: Rituximab-Bn-DOTA-Y radiolabeled with I-125
[5]
  time of maximum uptake: 60 min
[5]; at 60 min
  cell uptake: 65 % input/10^6 cells
[6]
  cell uptake in untransduced cells: minimal to no uptake
